{
  "source": "patent US20110262490A1",
  "about": "“POLYMER-AGENT CONJUGATES, PARTICLES, COMPOSITIONS, AND RELATED METHODS OF USE” (priority 2009, published 2011)",
  "key": {"HCT-116 tumor": {"tested_on": "HCT-116 tumor", "test": "In vivo efficacy in HCT-116 colon xenograft model (Example 44)", "set-up": "species or system mouse", "settings": "30 mg/kg IV weekly×2", "experimental": "HCT-116 cells were grown in culture to confluency in McCoy's 5a medium containing 10% FBS and 1% penicillin/streptomycin and then resuspended in McCoy's 5a (passage 4). This suspension of HCT-116 cells (density=3.7×10^6 cells/mL) was implanted subcutaneously above the right hind leg of male CD-1 nude mice on day 1."}, "[1]": {"settings": "30 mg/kg IV 1/biwk×3, listed as free docetaxel"}},
  "note": "Read-outs that look alike come from different tables or passages of the source.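 Throughout, for Day mean tumor volume endpoint (≧1000 mm^3) reached: tumor volume and body weight recorded thrice weekly while dosing and twice weekly afterwards, with animals checked for morbidity and adverse effects on the same schedule.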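 Throughout, for Day of 50% survival: tumor volume and body weight recorded thrice weekly while dosing and twice weekly afterwards, with animals checked for morbidity and adverse effects on the same schedule.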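 Throughout, for Hind limb paralysis: tumor volume and body weight recorded thrice weekly while dosing and twice weekly afterwards, with animals checked for morbidity and adverse effects on the same schedule.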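 Throughout, for Increase in TGD: tumor volume and body weight recorded thrice weekly while dosing and twice weekly afterwards, with animals checked for morbidity and adverse effects on the same schedule.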",
  "data": [
    {"smiles": "CC(=O)O[C@@]12CO[C@@H]1C[C@H](O)[C@@]1(C)C(=O)[C@H](O)C3=C(C)[C@@H](OC(=O)[C@H](O)[C@@H](NC(=O)OC(C)(C)C)c4ccccc4)C[C@@](O)([C@@H](OC(=O)c4ccccc4)[C@H]21)C3(C)C", "note": "[Free docetaxel, docetaxel]", "values": [
      {"measurement": "Day mean tumor volume endpoint (≧1000 mm^3) reached", "setting": "ADR-RES tumor; 30 mg/kg IV 1/biwk×3", "value": 99, "unit": "days"},
      {"measurement": "Day of 50% survival", "setting": "ADR-RES tumor; 30 mg/kg IV 1/biwk×3", "value": 102, "unit": "days"},
      {"measurement": "Hind limb paralysis", "setting": "ADR-RES tumor; 30 mg/kg IV 1/biwk×3", "value": "did not cause any significant body weight loss (<10%) or hind limb paralysis"},
      {"measurement": "Increase in TGD", "setting": "ADR-RES tumor; 30 mg/kg IV 1/biwk×3", "value": 0, "unit": "%"},
      {"measurement": "Maximum body weight loss", "setting": "ADR-RES tumor; 30 mg/kg IV 1/biwk×3", "value": 9, "unit": "%"},
      {"measurement": "Tumor growth delay (TGD)", "setting": "ADR-RES tumor; 30 mg/kg IV 1/biwk×3", "value": 0, "unit": "days"},
      {"measurement": "Tumor growth inhibition (% TGI)", "setting": "ADR-RES tumor; 30 mg/kg IV 1/biwk×3", "value": 0, "unit": "%"},
      {"measurement": "Tumor growth delay (TGD)", "setting": "ADR-RES tumor; [1]", "value": "no TGD"},
      {"measurement": "Tumor growth inhibition (% TGI)", "setting": "ADR-RES tumor; [1]", "value": 0, "unit": "%"},
      {"measurement": "Day mean tumor volume endpoint (≧1000 mm^3) reached", "setting": "ADR-RES tumor; 30 mg/kg IV 1/wk×2", "value": 109, "unit": "days"},
      {"measurement": "Day of 50% survival", "setting": "ADR-RES tumor; 30 mg/kg IV 1/wk×2", "value": 106, "unit": "days"},
      {"measurement": "Hind limb paralysis", "setting": "ADR-RES tumor; 30 mg/kg IV 1/wk×2", "value": "did not cause any significant body weight loss (<10%) or hind limb paralysis"},
      {"measurement": "Increase in TGD", "setting": "ADR-RES tumor; 30 mg/kg IV 1/wk×2", "value": 13, "unit": "%"},
      {"measurement": "Maximum body weight loss", "setting": "ADR-RES tumor; 30 mg/kg IV 1/wk×2", "value": 6, "unit": "%"},
      {"measurement": "Tumor growth delay (TGD)", "setting": "ADR-RES tumor; 30 mg/kg IV 1/wk×2", "value": 7, "unit": "days"},
      {"measurement": "Tumor growth inhibition (% TGI)", "setting": "ADR-RES tumor; 30 mg/kg IV 1/wk×2", "value": 23, "unit": "%"},
      {"measurement": "Tumor growth inhibition (% TGI)", "setting": "ADR-RES tumor; 30 mg/kg IV 1/wk×2, listed as free docetaxel", "value": 23, "unit": "%"},
      {"measurement": "Hind limb paralysis", "setting": "ADR-RES tumor; 60 mg/kg IV 1/biwk×3", "value": "severe hind limb paralysis"},
      {"measurement": "Maximum body weight loss", "setting": "ADR-RES tumor; 60 mg/kg IV 1/biwk×3", "value": 21, "unit": "%"},
      {"measurement": "Day mean tumor volume endpoint (≧1000 mm^3) reached", "setting": "ADR-RES tumor; 60 mg/kg IV 1/wk×2", "value": 106, "unit": "days"},
      {"measurement": "Day of 50% survival", "setting": "ADR-RES tumor; 60 mg/kg IV 1/wk×2", "value": 106, "unit": "days"},
      {"measurement": "Hind limb paralysis", "setting": "ADR-RES tumor; 60 mg/kg IV 1/wk×2", "value": "hind limb paralysis after the 2nd injection followed by recovery"},
      {"measurement": "Increase in TGD", "setting": "ADR-RES tumor; 60 mg/kg IV 1/wk×2", "value": 7, "unit": "%"},
      {"measurement": "Maximum body weight loss", "setting": "ADR-RES tumor; 60 mg/kg IV 1/wk×2", "value": 23, "unit": "%"},
      {"measurement": "Tumor growth delay (TGD)", "setting": "ADR-RES tumor; 60 mg/kg IV 1/wk×2", "value": 4, "unit": "days"},
      {"measurement": "Tumor growth inhibition (% TGI)", "setting": "ADR-RES tumor; 60 mg/kg IV 1/wk×2", "value": 14, "unit": "%"},
      {"measurement": "Tumor growth inhibition (% TGI)", "setting": "ADR-RES tumor; 60 mg/kg IV 1/wk×2, listed as free docetaxel", "value": 14, "unit": "%"},
      {"measurement": "Maximum body weight loss", "setting": "HCT-116 tumor", "value": 14, "unit": "%"},
      {"measurement": "Tumor growth inhibition (TGI)", "setting": "HCT-116 tumor", "value": 88, "unit": "%"},
      {"measurement": "TGD", "setting": "HCT-116 tumor; end point 1000 mm^3", "value": 22, "unit": "days"}
    ]}
  ]
}
